Measured values published in ChEMBL document CHEMBL3885881, “DrugMatrix”.

Organism: Rattus norvegicus
Test: DrugMatrix - Regimen: Daily Repeat
Type: toxicity, organism-based, Sprague-Dawley
Design: regimen Daily Repeat, gender Male, age 6-8 weeks
Conditions: in vivo, po, route oral GAVAGE, vehicle .5 % CMC; for ABSOLUTE BASOPHIL / ABSOLUTE EOSINOPHIL / ABSOLUTE LYMPHOCYTE / ABSOLUTE MONOCYTE / ABSOLUTE SEGMENTED NEUTROPHIL / BASOPHIL / EOSINOPHIL / ERYTHROCYTE COUNT / HEMATOCRIT / HEMOGLOBIN / LEUKOCYTE COUNT / LYMPHOCYTE / MEAN CORPUSCULAR HEMOGLOBIN / MEAN CORPUSCULAR HEMOGLOBIN CONCENTRATION / MEAN CORPUSCULAR VOLUME / MONOCYTE / NEUTROPHIL / NUCLEATED RED BLOOD CELLS / PLATELET COUNT: tissue Blood; for ALANINE AMINOTRANSFERASE / ALBUMIN / ALKALINE PHOSPHATASE / ASPARTATE AMINOTRANSFERASE / BLOOD UREA NITROGEN / CARBON DIOXIDE / CHLORIDE / CHOLESTEROL / CREATINE PHOSPHOKINASE / CREATININE / GLUCOSE / LACTATE DEHYDROGENASE / LIPASE / PHOSPHORUS / POTASSIUM / SODIUM / TOTAL BILIRUBIN / TOTAL PROTEIN / URIC ACID: tissue Plasma
[1] = 0 mg/kg, 72 h, dose level Control, time 3 day
[2] = 0 mg/kg, 120 h, dose level Control, time 5 day
[3] = 59 mg/kg, 72 h, dose level Low, time 3 day
[4] = 59 mg/kg, 120 h, dose level Low, time 5 day

## Cc1c(-c2ccccc2)oc2c(C(=O)OCCN3CCCCC3)cccc2c1=O [FLAVOXATE]
[1]
  ABSOLUTE BASOPHIL: 0 CELLS/uL
  ABSOLUTE EOSINOPHIL: 32.5 CELLS/uL
  ABSOLUTE LYMPHOCYTE: 13494.17 CELLS/uL
  ABSOLUTE MONOCYTE: 474 CELLS/uL
  ABSOLUTE SEGMENTED NEUTROPHIL: 1932.67 CELLS/uL
  BASOPHIL: 0%
  EOSINOPHIL: 0.17%
  ERYTHROCYTE COUNT: 5.45 x10E6/uL
  HEMATOCRIT: 34.32%
  HEMOGLOBIN: 13.82 G/DL
  LEUKOCYTE COUNT: 15.93 x10E3/uL
  LYMPHOCYTE: 84.83%
  MEAN CORPUSCULAR HEMOGLOBIN: 25.38 pg
  MEAN CORPUSCULAR HEMOGLOBIN CONCENTRATION: 40.27 G/DL
  MEAN CORPUSCULAR VOLUME: 63.05 fL
  MONOCYTE: 3%
  NEUTROPHIL: 12%
  NUCLEATED RED BLOOD CELLS: 0.67 /100WBC
  PLATELET COUNT: 1188.5 x10E3/uL
  ALANINE AMINOTRANSFERASE: 54.83 u/L
  ALBUMIN: 4.22 G/DL
  ALKALINE PHOSPHATASE: 427.67 u/L
  ASPARTATE AMINOTRANSFERASE: 86.5 u/L
  BLOOD UREA NITROGEN: 15.33 mg/dL
  CARBON DIOXIDE: 24.83 mmol/L
  CHLORIDE: 102.33 MEQ/L
  CHOLESTEROL: 71.67 mg/dL
  CREATINE PHOSPHOKINASE: 442.5 u/L
  CREATININE: 0.19 mg/dL
  GLUCOSE: 160.67 mg/dL
  LACTATE DEHYDROGENASE: 236.5 u/L
  LIPASE: 9 u/L
  PHOSPHORUS: 11.97 mg/dL
  POTASSIUM: 6.2 MEQ/L
  SODIUM: 142.85 MEQ/L
  TOTAL BILIRUBIN: 0.2 mg/dL
  TOTAL PROTEIN: 5.8 G/DL
  URIC ACID: 1.3 mg/dL
[2]
  ABSOLUTE BASOPHIL: 0 CELLS/uL
  ABSOLUTE EOSINOPHIL: 114.5 CELLS/uL
  ABSOLUTE LYMPHOCYTE: 14614 CELLS/uL
  ABSOLUTE MONOCYTE: 173 CELLS/uL
  ABSOLUTE SEGMENTED NEUTROPHIL: 1048.5 CELLS/uL
  BASOPHIL: 0%
  EOSINOPHIL: 0.67%
  ERYTHROCYTE COUNT: 5.66 x10E6/uL
  HEMATOCRIT: 35.52%
  HEMOGLOBIN: 14.27 G/DL
  LEUKOCYTE COUNT: 15.95 x10E3/uL
  LYMPHOCYTE: 91.33%
  MEAN CORPUSCULAR HEMOGLOBIN: 25.23 pg
  MEAN CORPUSCULAR HEMOGLOBIN CONCENTRATION: 40.2 G/DL
  MEAN CORPUSCULAR VOLUME: 62.7 fL
  MONOCYTE: 1.17%
  NEUTROPHIL: 6.83%
  NUCLEATED RED BLOOD CELLS: 0.33 /100WBC
  PLATELET COUNT: 1229 x10E3/uL
  ALANINE AMINOTRANSFERASE: 58.67 u/L
  ALBUMIN: 4.32 G/DL
  ALKALINE PHOSPHATASE: 382.5 u/L
  ASPARTATE AMINOTRANSFERASE: 81.67 u/L
  BLOOD UREA NITROGEN: 17.67 mg/dL
  CARBON DIOXIDE: 27.17 mmol/L
  CHLORIDE: 102.33 MEQ/L
  CHOLESTEROL: 63.67 mg/dL
  CREATINE PHOSPHOKINASE: 227.67 u/L
  CREATININE: 0.23 mg/dL
  GLUCOSE: 155.33 mg/dL
  LACTATE DEHYDROGENASE: 146.5 u/L
  LIPASE: 10.67 u/L
  PHOSPHORUS: 11.93 mg/dL
  POTASSIUM: 6.85 MEQ/L
  SODIUM: 143.95 MEQ/L
  TOTAL BILIRUBIN: 0.18 mg/dL
  TOTAL PROTEIN: 6.02 G/DL
  URIC ACID: 1.63 mg/dL
[3]
  ABSOLUTE BASOPHIL: 0 CELLS/uL
  ABSOLUTE EOSINOPHIL: 0 CELLS/uL
  ABSOLUTE LYMPHOCYTE: 10292.33 CELLS/uL
  ABSOLUTE MONOCYTE: 303.67 CELLS/uL
  ABSOLUTE SEGMENTED NEUTROPHIL: 1637.33 CELLS/uL
  BASOPHIL: 0%
  EOSINOPHIL: 0%
  ERYTHROCYTE COUNT: 5.31 x10E6/uL
  HEMATOCRIT: 32.77%
  HEMOGLOBIN: 12.9 G/DL
  LEUKOCYTE COUNT: 12.23 x10E3/uL
  LYMPHOCYTE: 84%
  MEAN CORPUSCULAR HEMOGLOBIN: 24.3 pg
  MEAN CORPUSCULAR HEMOGLOBIN CONCENTRATION: 39.4 G/DL
  MEAN CORPUSCULAR VOLUME: 61.7 fL
  MONOCYTE: 2.67%
  NEUTROPHIL: 13.33%
  NUCLEATED RED BLOOD CELLS: 0.33 /100WBC
  PLATELET COUNT: 1448 x10E3/uL
  ALANINE AMINOTRANSFERASE: 51.33 u/L
  ALBUMIN: 4.17 G/DL
  ALKALINE PHOSPHATASE: 336.67 u/L
  ASPARTATE AMINOTRANSFERASE: 71.67 u/L
  BLOOD UREA NITROGEN: 15 mg/dL
  CARBON DIOXIDE: 24.33 mmol/L
  CHLORIDE: 101.67 MEQ/L
  CHOLESTEROL: 85.67 mg/dL
  CREATINE PHOSPHOKINASE: 168.33 u/L
  CREATININE: 0.14 mg/dL
  GLUCOSE: 167.33 mg/dL
  LACTATE DEHYDROGENASE: 73.67 u/L
  LIPASE: 9.67 u/L
  PHOSPHORUS: 13.13 mg/dL
  POTASSIUM: 6.68 MEQ/L
  SODIUM: 144.33 MEQ/L
  TOTAL BILIRUBIN: 0.2 mg/dL
  TOTAL PROTEIN: 5.6 G/DL
  URIC ACID: 1.77 mg/dL
[4]
  ABSOLUTE BASOPHIL: 0 CELLS/uL
  ABSOLUTE EOSINOPHIL: 0 CELLS/uL
  ABSOLUTE LYMPHOCYTE: 14413.67 CELLS/uL
  ABSOLUTE MONOCYTE: 41.67 CELLS/uL
  ABSOLUTE SEGMENTED NEUTROPHIL: 1278 CELLS/uL
  BASOPHIL: 0%
  EOSINOPHIL: 0%
  ERYTHROCYTE COUNT: 5.45 x10E6/uL
  HEMATOCRIT: 34.03%
  HEMOGLOBIN: 13.93 G/DL
  LEUKOCYTE COUNT: 15.73 x10E3/uL
  LYMPHOCYTE: 92%
  MEAN CORPUSCULAR HEMOGLOBIN: 25.57 pg
  MEAN CORPUSCULAR HEMOGLOBIN CONCENTRATION: 40.93 G/DL
  MEAN CORPUSCULAR VOLUME: 62.5 fL
  MONOCYTE: 0.33%
  NEUTROPHIL: 7.67%
  NUCLEATED RED BLOOD CELLS: 0 /100WBC
  PLATELET COUNT: 1355 x10E3/uL
  ALANINE AMINOTRANSFERASE: 45.67 u/L
  ALBUMIN: 4.07 G/DL
  ALKALINE PHOSPHATASE: 365.33 u/L
  ASPARTATE AMINOTRANSFERASE: 71.33 u/L
  BLOOD UREA NITROGEN: 16 mg/dL
  CARBON DIOXIDE: 25 mmol/L
  CHLORIDE: 103.33 MEQ/L
  CHOLESTEROL: 77 mg/dL
  CREATINE PHOSPHOKINASE: 183.67 u/L
  CREATININE: 0.19 mg/dL
  GLUCOSE: 155.67 mg/dL
  LACTATE DEHYDROGENASE: 161.33 u/L
  LIPASE: 9.67 u/L
  PHOSPHORUS: 12.93 mg/dL
  POTASSIUM: 6.66 MEQ/L
  SODIUM: 145.6 MEQ/L
  TOTAL BILIRUBIN: 0.17 mg/dL
  TOTAL PROTEIN: 5.8 G/DL
  URIC ACID: 1.4 mg/dL
